Source: patent US10363239B2, “Method for inhibiting growth of cancer cells” (Pain Therapeutics, Inc., priority 2013, dated 2019)

Legend:
[1] = target: FLNA pentapeptide of SEQ ID NO: 1 (Bn-VAKGL) (Homo sapiens, UniProt P21333); assay: FITC-NLX-based FLNA screening assay (inhibition of FITC-naloxone binding to Bn-VAKGL on streptavidin plates); details: for inhibition at 0.01 µM: read-out: Percent Binding Inhibition, FLNA-binding compound 0.01 μM; for inhibition at 0.01 µM / inhibition at 0.1 µM / inhibition at 1 µM: 10 nM FITC-NLX; for inhibition at 0.1 µM: read-out: Percent Binding Inhibition, FLNA-binding compound 0.1 μM; for inhibition at 1 µM: read-out: Percent Binding Inhibition, FLNA-binding compound 1 μM
mu opiate receptor (MOR) = assay: MOR agonist activity using [35S]GTPγS binding assay in striatal membranes; format: biochemical; details: for % DAMGO (0.1 μM) / % DAMGO (1 μM): relative to DAMGO; for % DAMGO + BFNA: 1 μM compound + β-FNA, relative to DAMGO + BFNA
Experimental: To assess the mu opiate receptor (MOR) agonist activity of positive compounds from the FLNA screening, compounds were tested in a [^35S]GTPγS binding assay using striatal membranes. […] This assay measures a functional consequence of receptor occupancy at one of the earliest receptor-mediated events. The assay permits traditional pharmacological parameters of potency, efficacy and antagonist affinity, with the advantage that agonist measures are not subjected to amplification or other modulation that may occur when analyzing parameters further downstream of the receptor.
Thus, striatal tissue was homogenized in 10 volumes of ice cold 25 mM HEPES buffer, pH 7.4, which contained 1 mM EGTA, 100 mM sucrose, 50 μg/ml leupeptin, 0.04 mM PMSF, 2 μg/ml soybean trypsin inhibitor and 0.2% 2-mercaptoethanol. The homogenates were centrifuged at 800×g for 5 minutes and the supernatants were centrifuged at 49,000×g for 20 minutes. The resulting pellets were suspended in 10 volume of reaction buffer, which contained 25 mM HEPES, pH 7.5, 100 mM NaCl, 50 μg/ml leupeptin, 2 μg/ml soybean trypsin inhibitor, 0.04 mM PMSF and 0.02% […].
The resultant striatal membrane preparation (200 μg) was admixed and maintained (incubated) at 30° C. for 5 minutes in reaction buffer as above that additionally contained 1 mM MgCl2 and 0.5 nM [^35S]GTPγS (0.1 μCi/assay, PerkinElmer Life and Analytical Sciences) in a total volume of 250 μl and continued for 5 minutes in the absence or presence of 0.1-10 μM of an assayed compound of interest. The reaction was terminated by dilution with 750 μl of ice-cold reaction buffer that contained 20 mM MgCl2 and 1 mM EGTA and immediate centrifugation at 16,000×g for 5 minutes.
The resulting pellet was solubilized by sonicating for 10 seconds in 0.5 ml of immunoprecipitation buffer containing 0.5% digitonin, 0.2% sodium cholate and 0.5% NP-40. Normal rabbit serum (1 μl) was added to 1 ml of lysate and incubated at 25° C. for 30 minutes. Nonspecific immune complexes were removed by incubation with 25 μl of protein A/G-conjugated agarose beads at 25° C. for 30 minutes followed by centrifugation at 5,000×g at 4° C. for 5 minutes. The supernatant was divided and separately incubated at 25° C. for 30 minutes with antibodies raised against Gαo proteins (1:1,000 dilutions).
The immunocomplexes so formed were collected by incubation at 25° C. for 30 minutes with 40 μl of agarose-conjugated protein A/G beads and centrifugation at 5,000×g at 4° C. for 5 minutes. The pellet was washed and suspended in buffer containing 50 mM Tris-HCl, pH 8.0, and 1% NP-40. The radioactivity in the suspension was determined by liquid scintillation spectrometry.

[2] = Series C-2, 0.1 μM compound, [35S]GTPγS binding to Gαo, striatal membranes
[3] = Series C-2, 1 μM compound + 1 μM β-FNA
[4] = Series C-2, 1 μM compound, [35S]GTPγS binding to Gαo, striatal membranes
[5] = Series C-1, 0.1 μM compound, [35S]GTPγS binding to Gαo, striatal membranes
[6] = Series C-1, 1 μM compound + 1 μM β-FNA
[7] = Series C-1, 1 μM compound, [35S]GTPγS binding to Gαo, striatal membranes

Structure (SMILES)	inhibition at 0.01 µM [1] [%]	inhibition at 0.1 µM [1] [%]	inhibition at 1 µM [1] [%]	% DAMGO (0.1 μM) (mu opiate receptor (MOR); Series C-1, 0.1 μM compound) [%]	Concentration of FLNA-Binding Compound as Agonist 0.1 μM (mu opiate receptor (MOR); [5]) [%]	Concentration of FLNA-Binding Compound as Agonist 1 μM + BFNA (mu opiate receptor (MOR); [6]) [%]	% DAMGO + BFNA (mu opiate receptor (MOR); Series C-1) [%]	% DAMGO (1 μM) (mu opiate receptor (MOR); Series C-1, 1 μM compound) [%]	Concentration of FLNA-Binding Compound as Agonist 1 μM (mu opiate receptor (MOR); [7]) [%]	further results
CC(=O)c1ccc(S(=O)(=O)N2CCOC23CCN(C)CC3)cc1 [Compound C0093M]	44.8	49.9	53.5	–	–	–	–	–	–	% DAMGO (0.1 μM) (mu opiate receptor (MOR); Series C-2, 0.1 μM compound): 81.3%; MOR agonist activity, percent [35S]GTPγS binding at the stated compound concentration (mu opiate receptor (MOR); [2]): 140.0%; MOR agonist activity, percent [35S]GTPγS binding at the stated compound concentration (mu opiate receptor (MOR); [3]): 44.0%; % DAMGO + BFNA (mu opiate receptor (MOR); Series C-2): 127.5%; % DAMGO (1 μM) (mu opiate receptor (MOR); Series C-2, 1 μM compound): 96.4%; MOR agonist activity, percent [35S]GTPγS binding at the stated compound concentration (mu opiate receptor (MOR); [4]): 211.8%
CS(=O)(=O)c1ccc(S(=O)(=O)N2CCC3(CC2)OCCN3S(=O)(=O)c2ccc(S(C)(=O)=O)cc2)cc1 [Compound C0009]	41.7	49	53.9	85.1	146.3	26.4	41.2	92.6	256.2	–
COc1cccc(OC)c1C(=O)CC1c2c(cc3c(c2OC)OCO3)CC[N+]1(C)C (centres unmarked) [Compound B0023]	28.5	37.8	46.4	–	–	–	–	–	–	% DAMGO (0.1 μM) (mu opiate receptor (MOR); Series B, 0.1 μM compound): 99.4%; MOR agonist activity, percent [35S]GTPγS binding at the stated compound concentration (mu opiate receptor (MOR); Series B, 0.1 μM compound, [35S]GTPγS binding to Gαo, striatal membranes): 166.1%; MOR agonist activity, percent [35S]GTPγS binding at the stated compound concentration (mu opiate receptor (MOR); Series B, 1 μM compound + 1 μM β-FNA): 28.4%; % DAMGO + BFNA (mu opiate receptor (MOR); Series B): 81.8%; % DAMGO (1 μM) (mu opiate receptor (MOR); Series B, 1 μM compound): 100.1%; MOR agonist activity, percent [35S]GTPγS binding at the stated compound concentration (mu opiate receptor (MOR); Series B, 1 μM compound, [35S]GTPγS binding to Gαo, striatal membranes): 245.3%
O=S(=O)(c1ccc2ccccc2c1)N1CCC2(CC1)OCCN2S(=O)(=O)c1ccc2ccccc2c1 [Compound C0140M]	42.3	49.2	54.4	85.8	126.1	83.0	211.2	106.5	215.4	–
O=S(=O)(c1ccc(-c2ccccc2)cc1)N1CCC2(CC1)OCCN2S(=O)(=O)c1ccc(-c2ccccc2)cc1 [Compound C0010]	39.8	42.7	47.1	80.7	136.5	89.1	135.0	114.9	307.0	–
O=C1CN(C2CCc3ccccc3C2)C2(CCN(S(=O)(=O)c3ccccc3)CC2)N1 (centres unmarked) [C0136M(P5)]	46.7	55.2	58.2	–	–	–	–	–	–	% DAMGO (0.1 μM) (mu opiate receptor (MOR); Series C-2, 0.1 μM compound): 93.4%; MOR agonist activity, percent [35S]GTPγS binding at the stated compound concentration (mu opiate receptor (MOR); [2]): 176.8%; MOR agonist activity, percent [35S]GTPγS binding at the stated compound concentration (mu opiate receptor (MOR); [3]): 74.5%; % DAMGO + BFNA (mu opiate receptor (MOR); Series C-2): 153.6%; % DAMGO (1 μM) (mu opiate receptor (MOR); Series C-2, 1 μM compound): 95.6%; MOR agonist activity, percent [35S]GTPγS binding at the stated compound concentration (mu opiate receptor (MOR); [4]): 237.3%
C=CCN1CCC2(CC1)OCCN2S(=O)(=O)c1ccc(C)cc1 [Compound 10]	–	–	–	–	–	–	–	–	–	Binding to FLNA (conclusion in words) ([1]; preliminary study): bind well to FLNA; MOR agonist activity, FLNA-Binding Compound as Agonist 0.1 μM (preliminary study) (mu opiate receptor (MOR); 0.1 μM, average of two runs): 163.1%; MOR agonist activity, FLNA-Binding Compound as Agonist 1 μM + βNFA (preliminary study) (mu opiate receptor (MOR); 1 μM + βNFA, average of two runs): 60.4%; MOR agonist activity, FLNA-Binding Compound as Agonist 1 μM (preliminary study) (mu opiate receptor (MOR); 1 μM, average of two runs): 191.8%; MOR agonist activity (conclusion in words) (mu opiate receptor (MOR); preliminary study): MOR agonists
